Source: the supplement of paper PMC4862054

Legend:
Assay in all cases: normalised viability (% of control), CellTiter-Blue; higher = more viable cells (about 100 = DMSO control)
Details in all cases: incubation time: 72 h
MDA-MB-453 [1] = tested on: MDA-MB-453
Protocol: (§1)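 DSRT, CellTiter-Blue viability, 72 h incubation. Signal is normalised to DMSO and benzethonium chloride controls. Value is the normalised response at dose 7.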

CAL-51 [2] = tested on: CAL-51
Protocol: as §1

CAL-148 [3] = tested on: CAL-148
Protocol: as §1

CAL-85-1 [4] = tested on: CAL-85-1
Protocol: as §1

DU-4475 [5] = tested on: DU-4475
Protocol: as §1

HDQ-P1 [6] = tested on: HDQ-P1
Protocol: as §1

MDA-MB-453 [7] = tested on: MDA-MB-453; remark: listed apart in the source
Protocol: (§2)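 DSRT, CellTiter-Blue viability, 72 h incubation. Signal is normalised to DMSO and benzethonium chloride controls. Value is the normalised response at dose 9.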

CAL-51 [8] = tested on: CAL-51; remark: listed apart in the source
Protocol: as §2

CAL-148 [9] = tested on: CAL-148; remark: listed apart in the source
Protocol: as §2

CAL-85-1 [10] = tested on: CAL-85-1; remark: listed apart in the source
Protocol: as §2

DU-4475 [11] = tested on: DU-4475; remark: listed apart in the source
Protocol: as §2

HDQ-P1 [12] = tested on: HDQ-P1; remark: listed apart in the source
Protocol: as §2

MDA-MB-453 [13] = tested on: MDA-MB-453; remark: listed apart in the source
Protocol: (§3)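 DSRT, CellTiter-Blue viability, 72 h incubation. Signal is normalised to DMSO and benzethonium chloride controls. Value is the normalised response at dose 6.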

CAL-51 [14] = tested on: CAL-51; remark: listed apart in the source
Protocol: as §3

CAL-148 [15] = tested on: CAL-148; remark: listed apart in the source
Protocol: as §3

CAL-85-1 [16] = tested on: CAL-85-1; remark: listed apart in the source
Protocol: as §3

DU-4475 [17] = tested on: DU-4475; remark: listed apart in the source
Protocol: as §3

HDQ-P1 [18] = tested on: HDQ-P1; remark: listed apart in the source
Protocol: as §3

Row | SMILES | normalised viability (MDA-MB-453 [13]) | normalised viability (CAL-51 [14]) | normalised viability (CAL-148 [15]) | normalised viability (CAL-85-1 [16]) | normalised viability (DU-4475 [17]) | normalised viability (HDQ-P1 [18]) | other results
1 | CC[C@@]1(O)C(=O)OCc2c1cc1n(c2=O)Cc2cc3ccccc3nc2-1 [Camptothecin] (500 nM) | – | – | – | – | – | – | normalised viability (MDA-MB-453 [1]): 23.7%; normalised viability (CAL-51 [2]): 5.8%; normalised viability (CAL-148 [3]): 8%; normalised viability (CAL-85-1 [4]): 40%; normalised viability (DU-4475 [5]): 10.7%; normalised viability (HDQ-P1 [6]): 50.3%
2 | CC[C@@]1(O)C(=O)OCc2c1cc1n(c2=O)Cc2cc3ccccc3nc2-1 [Camptothecin] (5000 nM) | – | – | – | – | – | – | normalised viability (MDA-MB-453 [7]): 5.48%; normalised viability (CAL-51 [8]): 1.8%; normalised viability (CAL-148 [9]): 0.33%; normalised viability (CAL-85-1 [10]): 13.9%; normalised viability (DU-4475 [11]): -0.07%; normalised viability (HDQ-P1 [12]): 24.2%
3 | O=c1[nH]cc(F)c(=O)[nH]1 [Fluorouracil] (300 nM) | 85.7% | 101% | 96.7% | 87.2% | 102% | 87.2% | –
4 | C[C@@H]1C=C2C(=O)O[C@@H]3CC[C@H](C1)[C@]23O [Galiellalactone] (1500 nM) | 103% | 106% | 138% | 100% | 98.1% | 65.4% | –
5 | COC1=C2C[C@@H](C)C[C@H](OC)[C@H](O)[C@@H](C)/C=C(\C)[C@H](OC(N)=O)[C@@H](OC)/C=C\C=C(/C)C(=O)NC(=CC1=O)C2=O [Geldanamycin] (300 nM) | 6.01% | 74.5% | 28.9% | 47.7% | 0.05% | 46.5% | –
6 | O=P(O)(NCCCl)NCCCl [Ifosfamide mustard] (300 nM) | 114% | 100% | 110% | 98% | 92.7% | 54% | –
7 | O=P(O)(NCCCl)NCCCl [Ifosfamide mustard] (1000 nM) | – | – | – | – | – | – | normalised viability (MDA-MB-453 [1]): 104%; normalised viability (CAL-51 [2]): 107%; normalised viability (CAL-148 [3]): 111%; normalised viability (CAL-85-1 [4]): 89.4%; normalised viability (DU-4475 [5]): 112%; normalised viability (HDQ-P1 [6]): 119%
8 | O=P(O)(NCCCl)NCCCl [Ifosfamide mustard] (10000 nM) | – | – | – | – | – | – | normalised viability (MDA-MB-453 [7]): 99.8%; normalised viability (CAL-51 [8]): 94.3%; normalised viability (CAL-148 [9]): 105%; normalised viability (CAL-85-1 [10]): 87.1%; normalised viability (DU-4475 [11]): 96.1%; normalised viability (HDQ-P1 [12]): 105%
9 | Cn1cnc2c(F)c(Nc3ccc(Br)cc3F)c(C(=O)NOCCO)cc21 [MEK-162] (30 nM) | 118% | 96.5% | 95.1% | 101% | 61.2% | 47.6% | –
10 | CCOc1cc2ncc(C#N)c(Nc3ccc(OCc4ccccn4)c(Cl)c3)c2cc1NC(=O)/C=C/CN(C)C [Neratinib] (30 nM) | 81.2% | 96% | 85.9% | 107% | 100% | 94.3% | –
11 | COc1ccc(C2=N[C@@H](c3ccc(Cl)cc3)[C@@H](c3ccc(Cl)cc3)N2C(=O)N2CCNC(=O)C2)c(OC(C)C)c1 [Nutlin-3] (300 nM) | 91.2% | 99% | 96.3% | 89.9% | 84.8% | 66.2% | –
12 | COC1=CC(c2cc3ccccc3[nH]2)=N/C1=C\c1[nH]c(C)cc1C [Obatoclax] (300 nM) | 72.2% | 95.7% | 91.1% | 66.2% | 75% | 40.7% | –
13 | COC(=O)C[C@](O)(CCCC(C)(C)O)C(=O)O[C@@H]1C(OC)=C[C@]23CCCN2CCc2cc4c(cc2[C@H]13)OCO4 [Omacetaxine mepesuccinate] (300 nM) | 20.1% | 7.35% | 13.5% | 4.19% | 9.29% | 10.2% | –
14 | COC(=O)C[C@](O)(CCCC(C)(C)O)C(=O)O[C@@H]1C(OC)=C[C@]23CCCN2CCc2cc4c(cc2[C@H]13)OCO4 [Omacetaxine mepesuccinate] (1000 nM) | – | – | – | – | – | – | normalised viability (MDA-MB-453 [1]): 15.1%; normalised viability (CAL-51 [2]): 4.98%; normalised viability (CAL-148 [3]): 12.4%; normalised viability (CAL-85-1 [4]): 3.04%; normalised viability (DU-4475 [5]): 9.53%; normalised viability (HDQ-P1 [6]): 13.1%
